In ChEMBL document CHEMBL5321295, “Targeted Degradation of Alpha-Synuclein by Autophagosome-Anchoring Chimera Peptides” (J Med Chem, 2023):
The source made the active and inactive calls. The rule behind the calls is not given here.

Experiments:
Alpha-synuclein [1] = target: T1, Alpha-synuclein (Homo sapiens, UniProt P37840); test: Induction of alpha-synuclein (unknown origin) degradation overexpressed in HEK293T cells infected with adenovirus expressing mCherry-EGFP-LC3B incubated for 24 hrs by immunoblot analysis; type: cell-based
[2] = Toxicity in C57BL/6 mouse assessed as change in LDHL level at 50 to 200 mg/kg/day treated for 5 days; type: organism-based; details: in vivo, 120 h, dose 50-200 mg/kg/day, time 5 day
Mus musculus [3] = test: Neuroprotective activity in MPTP-treated C57BL/6 mouse assessed as increase in dopaminergic neurons of substantia nigra pars compacta at 50 mg/kg/day, iv treated for 5 days by immunofluorescent staining of tyrosine hydroxylase based microscopy; type: functional, organism-based; details: time 5.0 day
Mus musculus [4] = test: Neuroprotective activity in MPTP-treated C57BL/6 mouse assessed as decrease in impaired neurons in substantia nigra pars compacta at 50 mg/kg/day, iv treated for 5 days by FJB staining based microscopy; type: functional, organism-based; details: time 5.0 day
[5] = target: T2, Microtubule-associated protein 1 light chain 3 beta (Homo sapiens, UniProt Q9GZQ8); test: Binding affinity to LC3B in HEK293T cells overexpressing alpha-synuclein (unknown origin) assessed as shift in denaturation at 50 uM incubated for 4 hrs followed by heating at 40 to 75 degreeC for 3 mins by CETSA assay; type: cell-based; details: time 243.0 min
Mus musculus [6] = test: Downregulation of aggregated alpha-synuclein level in substantia nigra pars compacta of MPTP-treated C57BL/6 mouse at 50 mg/kg/day, iv treated for 5 days by IHC analysis; type: functional, organism-based; details: time 5.0 day
[7] = Toxicity in C57BL/6 mouse assessed as change in LDH1 level at 50 to 200 mg/kg/day treated for 5 days; type: organism-based; details: in vivo, 120 h, dose 50-200 mg/kg/day, time 5 day
HEK-293T [8] = test: Cytotoxicity against wild-type HEK293T cells assessed as cell viability upto 200 uM incubated for 24 hrs by CCK8 assay; type: toxicity, cell-based; details: human
SH-SY5Y [9] = test: Cytoprotective activity against CCCP-induced cytotoxicity in human SH-SY5Y cells assessed as cell viability at 100 uM by CCK8 assay; type: functional, cell-based
[10] = Drug localization in HEK293T cells overexpressing mCherry-fused alpha-synuclein (unknown origin) assessed as puncta formation of alpha-synuclein at 50 uM incubated for 2 hrs by MDC staining based confocal laser scanning microscopy; type: ADME, cell-based; details: human, hek-293t
SH-SY5Y [11] = test: Cytoprotective activity in human SH-SY5Y cells transfected with alpha-synuclein (unknown origin) assessed as early apoptotic cells at 100 uM measured after 24 hrs by […] based flow cytometry (reference value: 0.17 %); type: functional
Alpha-synuclein [12] = target: T1, Alpha-synuclein; test: Induction of EGFP-fused alpha-synuclein (unknown origin) degradation overexpressed in HEK293T cells assessed as colocalization of alpha-synuclein with mCherry-fused LC3B at 50 uM incubated for 2 hrs by confocal laser scanning microscopy; type: cell-based
[13] = Toxicity in C57BL/6 mouse assessed as change in urea level at 50 to 200 mg/kg/day treated for 5 days; type: organism-based; details: in vivo, 120 h, dose 50-200 mg/kg/day, time 5 day
Alpha-synuclein [14] = target: T1, Alpha-synuclein; test: Binding affinity to biotinylated recombinant alpha-synuclein (unknown origin) assessed as dissociation constant by BLI assay
Alpha-synuclein [15] = target: T1, Alpha-synuclein; test: Induction of alpha-synuclein (unknown origin) degradation overexpressed in HEK293T cells pretreated with BafA1 at 50 uM incubated for 24 hrs by immunoblot analysis; type: cell-based
SH-SY5Y [16] = test: Cytoprotective activity in human SH-SY5Y cells transfected with alpha-synuclein (unknown origin) assessed as decrease in ROS level at 100 uM measured after 24 hrs by confocal laser scanning microscopy/flow cytometry (reference value: 175.4 +/- 8.4 %); type: functional; set-up: scale not given: the % may be the effect or the level left
[17] = target: T2, Microtubule-associated protein 1 light chain 3 beta; test: Induction of LC3B-mediated autophagy flux in HEK293T cells overexpressing alpha-synuclein (unknown origin) assessed as increase in LAMP1 level upto 100 uM incubated for 4 hrs by immunoblot analysis; type: cell-based
SH-SY5Y [18] = test: Cytoprotective activity in human SH-SY5Y cells assessed as decrease in CCCP-induced ROS level at 100 uM measured after 24 hrs by DCFH-DA staining based confocal laser scanning microscopy; type: functional, cell-based
[19] = target: T2, Microtubule-associated protein 1 light chain 3 beta; test: Induction of LC3B-mediated autophagy flux in HEK293T cells overexpressing alpha-synuclein (unknown origin) cotransfected with adenovirus-packaged plasmid encoding mCherry-EGFP-fused LC3B assessed as increase in number of autolysosomes incubated for 4 hrs by confocal laser scanning microscopy; type: cell-based; details: dose <= 100.0 µM
HEK-293T [20] = test: Downregulation of SMAP expression in HEK293T cells at 100 uM incubated for 24 hrs by proteomic profiling analysis; type: functional, cell-based; details: Homo sapiens
Mus musculus [21] = test: Downregulation of phosphorylated alpha-synuclein at S129 residue level in substantia nigra pars compacta of MPTP-treated C57BL/6 mouse at 50 mg/kg/day, iv treated for 5 days by IHC analysis; type: functional, organism-based; details: time 5.0 day
Mus musculus [22] = test: Neuroprotective activity in MPTP-induced cognitive impairment in C57BL/6 mouse assessed as increase in time spent in target quadrant in probe trial phase at 50 mg/kg/day, iv treated for 5 days measured after 5 to 8 days days by morris water maze test; type: functional, organism-based; details: time 10-13 day
[23] = Drug localization in HEK293T cells overexpressing mCherry-fused alpha-synuclein (unknown origin) assessed as colocalization of lysosomes at 50 uM incubated for 2 hrs by MDC staining based confocal laser scanning microscopy; type: ADME, cell-based; details: human, hek-293t
SH-SY5Y [24] = test: Cytoprotective activity in human SH-SY5Y cells assessed as increase in CCCP-induced mitochondrial membrane potential level at 100 uM measured after 24 hrs by JC-1 staining based confocal laser scanning microscopy; type: functional, cell-based
[25] = Toxicity in C57BL/6 mouse assessed as dyspnea at 50 to 200 mg/kg/day treated for 5 days; type: organism-based; details: in vivo, 120 h, dose 50-200 mg/kg/day, time 5 day
[26] = Toxicity in C57BL/6 mouse assessed as change in creatine kinase level at 50 to 200 mg/kg/day treated for 5 days; type: organism-based; details: in vivo, 120 h, dose 50-200 mg/kg/day, time 5 day
Mus musculus [27] = test: Downregulation of total aggregated protein level in substantia nigra pars compacta of MPTP-treated C57BL/6 mouse at 50 mg/kg/day, iv treated for 5 days by ThS staining based analysis; type: functional, organism-based; details: time 5.0 day
[28] = Drug localization in HEK293T cells overexpressing mCherry-fused alpha-synuclein (unknown origin) assessed as puncta formation of alpha-synuclein at 50 uM incubated for 2 hrs by LyTG staining based confocal laser scanning microscopy; type: ADME, cell-based; details: human, hek-293t
SH-SY5Y [29] = test: Cytotoxicity against wild-type human SH-SY5Y cells assessed as cell viability upto 200 uM incubated for 24 hrs by CCK8 assay; type: functional, cell-based
Mus musculus [30] = test: Neuroprotective activity in MPTP-induced cognitive impairment in C57BL/6 mouse assessed as decrease in escape latency in navigation trial phase at 50 mg/kg/day, iv treated for 5 days measured after 5 to 8 days days by morris water maze test; type: functional, organism-based; details: time 10-13 day
Alpha-synuclein [31] = target: T1, Alpha-synuclein; test: Induction of alpha-synuclein (unknown origin) degradation overexpressed in HEK293T cells infected with adenovirus expressing mCherry-EGFP-LC3B at 50 uM incubated for 3 hrs by immunoblot analysis; type: cell-based
HEK-293T [32] = test: Downregulation of SNCA expression in HEK293T cells at 100 uM incubated for 24 hrs by proteomic profiling analysis; type: functional, cell-based; details: Homo sapiens
[33] = Toxicity in C57BL/6 mouse assessed as ataxia at 50 to 200 mg/kg/day treated for 5 days; type: organism-based; details: in vivo, 120 h, dose 50-200 mg/kg/day, time 5 day
SH-SY5Y [34] = test: Cytoprotective activity in human SH-SY5Y cells transfected with alpha-synuclein (unknown origin) assessed as cell viability at 50 uM by CCK8 assay relative to control; type: functional; details: read-out: Activity

Which DC50 (Alpha-synuclein [1]) does the source give for CC(C)C[C@H](NC(=O)[C@H](Cc1c[nH]cn1)NC(=O)[C@@H](NC(=O)[C@H](Cc1c[nH]c2ccccc12)NC(=O)[C@H](CC(=O)O)NC(=O)[C@H](CC(=O)O)NC(=O)[C@H](CC(=O)O)NC(=O)CNC(=O)CNC(=O)[C@H](CO)NC(=O)[C@H](CO)NC(=O)CNC(=O)[C@H](CO)NC(=O)CNC(=O)[C@H](CCCNC(=N)N)NC(=O)[C@@H](NC(=O)[C@H](CCCCN)NC(=O)[C@H](CO)NC(=O)CNC(=O)[C@@H](NC(=O)[C@H](Cc1ccc(O)cc1)NC(=O)[C@H](CC(C)C)NC(=O)[C@@H](NC(=O)CN)C(C)C)C(C)C)[C@H](C)O)[C@@H](C)O)C(=O)N[C@@H](CO)C(=O)N[C@@H](CO)C(=O)N[C@@H](Cc1ccc(O)cc1)C(=O)NCC(=O)N[C@@H](CCCNC(=N)N)C(=O)N[C@@H](CCCCN)C(=O)N[C@@H](CCCCN)C(=O)N[C@@H](CCCNC(=N)N)C(=O)N[C@@H](CCCNC(=N)N)C(=O)N[C@@H](CCC(N)=O)C(=O)N[C@@H](CCCNC(=N)N)C(=O)N[C@@H](CCCNC(=N)N)C(=O)N[C@@H](CCCNC(=N)N)C(=O)O here?
Its DC50 is 46.8 µM.

What about the Activity (Alpha-synuclein [1]; dose <= 200.0 µM) of the same compound?
The Activity was “Dose-Dependent Effect”.

And the Activity [2]?
The Activity was “Non-Toxic”.

What about the Activity (Mus musculus [3]) of the same compound?
The Activity was “Active”.

What about the Activity (Mus musculus [4]) of the same compound?
The Activity was “Active”.

And the Activity [5]?
Its Activity is “Active”.

What about the Activity (Mus musculus [6]) of the same compound?
Its Activity is “Active”.

What about the Activity [7] of the same compound?
Its Activity is “Non-Toxic”.

And the Activity (HEK-293T [8])?
Its Activity is “Non-Toxic”.

What about the Activity (SH-SY5Y [9]) of the same compound?
Its Activity is “inactive”.

What about the Drug uptake [10] of the same compound?
The Drug uptake was “Active”.

What about the Activity (SH-SY5Y [11]) of the same compound?
The Activity was 0.76%.

What about the Activity (Alpha-synuclein [12]) of the same compound?
Its Activity is “Active”.

What about the Activity [13] of the same compound?
The Activity was “Non-Toxic”.

And the Kd (Alpha-synuclein [14])?
Its Kd is 8.83 µM.

And the Activity (Alpha-synuclein [15])?
Its Activity is “inactive”.

What about the Activity (SH-SY5Y [16]) of the same compound?
Its Activity is 127.7%.

And the Activity [17]?
The Activity was “Active”.

What about the Activity (SH-SY5Y [18]) of the same compound?
The Activity was “inactive”.

What about the Activity [19] of the same compound?
The Activity was “Dose-Dependent Effect”.

What about the Activity (HEK-293T [20]) of the same compound?
Its Activity is “Active”.

What about the Activity (Mus musculus [21]) of the same compound?
The Activity was “Active”.

What about the Activity (Mus musculus [22]) of the same compound?
Its Activity is “Active”.

And the Drug uptake [23]?
Its Drug uptake is “Active”.

And the Activity (SH-SY5Y [24])?
Its Activity is “inactive”.

What about the Activity [25] of the same compound?
The Activity was “Non-Toxic”.

What about the Activity [26] of the same compound?
Its Activity is “Non-Toxic”.

And the Activity (Mus musculus [27])?
The Activity was “Active”.

And the Drug uptake [28]?
Its Drug uptake is “Active”.

And the Activity (SH-SY5Y [29])?
The Activity was “inactive”.

And the Activity (Mus musculus [30])?
The Activity was “Active”.

And the Activity (Alpha-synuclein [31])?
Its Activity is “Active”.

What about the Activity (HEK-293T [32]) of the same compound?
The Activity was “Active”.

What about the Activity [33] of the same compound?
The Activity was “Non-Toxic”.

What about the viability at 50 µM (SH-SY5Y [34]) of the same compound?
The viability at 50 µM was 91.8%.
